US20080242700A1, “Methods and Compositions for Selectin Inhibition” (Wyeth, priority 2007, published 2008)

biological target: T1, P-selectin/PSGL-1 interaction (Homo sapiens, UniProt P16109); test: Biacore P-selectin/PSGL-1 inhibition assay (surface plasmon resonance); format: binding; details: 250 uM test compound; 500 nM P.LE; immobilized biotinylated PSGL-1 19ek; 10% DMSO; pH 7.4; 25° C.
T1 construct: comprised of the lectin and epidermal growth factor-like (EGF) domains expressed in CHO cells; made in house; host or cells: CHO cells (P-LE)
T1 sequence (P16109 42-198): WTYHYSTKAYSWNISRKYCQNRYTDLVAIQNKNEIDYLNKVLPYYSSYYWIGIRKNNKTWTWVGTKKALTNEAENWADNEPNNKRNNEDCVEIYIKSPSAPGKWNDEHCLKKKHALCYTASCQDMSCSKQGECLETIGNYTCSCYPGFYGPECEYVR
Description: Surface plasmon resonance assays were performed on a Biacore 3000 instrument (Biacore Inc. Piscataway, N.J.) at 25° C. at a flow rate of 30 μL/minute and each assay consisted of a 60-second equilibration, a 60-μL sample injection (kinject), and a 300-second dissociation.
A purified, monomeric, truncated form of human PSGL-1, “19ek”, that contained all the necessary P-selectin binding determinants (see Goetz, et al., J Cell Biol., 1997, 137: 509-519; and Sako, et al., Cell, 1995, 83: 323-331) was biotinylated via amine chemistry (Sulfo-NHS-LC-Biotin, Peirce) at a unique C-terminal lysine residue (see Somers, et al., Cell, 2000, 103: 467-479) and immobilized on a Biacore SA sensor chip (Biacore Inc.), using an HBS-EP buffer (Biacore Inc.), and the target 600-700 RU. The coated chip was re-equilibrated with an HBS-P buffer (Biacore Inc.) to which 1 mM CaCl2 and 1 mM MgCl2 (both from Fisher) were added to ensure sufficient calcium for the calcium-dependent interaction between the receptor and the ligand.
Test compounds were incubated for 1 hour in a 1.1× Biacore assay buffer. Each solution was centrifuged through a 0.2 μm filter, using a 96-well plate format (Millipore). Glycyrrhizin tri-sodium salt (TCl) was prepared as a positive control in parallel with the test compounds, in the same manner described above.
A soluble recombinant truncated form of human P-selectin, P-LE, comprised of the lectin and epidermal growth factor-like (EGF) domains expressed in CHO cells (see Somers, et al., Cell, 2000, 103: 467-479) was added to each filtered test compound solution. Final concentrations of reagents were 500 nM P.LE, 250 or 500 μM test compound (depending on structure) or 1 mM glycyrrhizin, 10% DMSO, and 1× Biacore buffer ([…], 150 mM NaCl, 1 mM CaCl2, and 1 mM MgCl2 (all reagents from Fisher)), with a pH of 7.4. Compounds active at 250 μM were titrated to further define activity. Test samples were supplied to the Biacore instrument in a 96-well plate.
The Biacore raw data file was exported as a text file to an Excel spreadsheet, where the buffer blanks bracketing the samples were averaged for each Biacore instrument flow cell (Fc), and subtracted from the averaged uninhibited P.LE samples and from all the other samples. The reference signal from Fc1 (uncoated) was then subtracted from its corresponding active (coated) signal for each injection, a process known as double referencing (see Myszka, J Mol. Recognit., 1999, 12(5): 279-284). The percent inhibition of binding was calculated by dividing the reference-subtracted inhibited signal by the reference-subtracted uninhibited signal, subtracting this value from 1, and multiplying the resulting value by 100. The replicate percent inhibition values were averaged and expressed as the mean±standard deviation. The inter-experiment standard deviation of calculated percent inhibitions in the Biacore assay was ±5.

**Q.** With O=C(O)c1c(O)c(C2Cc3ccccc32)nc2c(C(F)(F)F)cccc12 (stereo not drawn) [Compound 1, 2-(1,2-dihydrocyclobutabenzen-1-yl)-3-hydroxy-8-(trifluoro-methyl)quinoline-4-carboxylic acid] as the compound, how does the inhibition at 250 µM read?
**A.** 45%

**Q.** Cc1ccc2c(C(=O)O)c(O)c(C3Cc4ccccc43)nc2c1C (stereo not drawn) [Compound 2, 2-(1,2-dihydrocyclobutabenzen-1-yl)-3-hydroxy-7,8-dimethyl-quinolin-4-carboxylic acid] was tested. Which inhibition at 250 µM did it give?
**A.** 17%

**Q.** How did the inhibition at 250 µM turn out when Cc1ccc2c(C(=O)O)c(O)c(C3Cc4ccccc4C3)nc2c1C [Compound 3, 3-hydroxy-2-indan-2-yl-7,8-dimethyl-quinolin-4-carboxylicacid] was run?
**A.** 11%

**Q.** With CC(C)c1cccc2c(C(=O)O)c(O)c(C3Cc4ccccc4C3)nc12 [Compound 4, 3-hydroxy-2-indan-2-yl-8-isopropyl-quinolin-4-carboxylicacid] as the compound, how does the inhibition at 250 µM read?
**A.** 48%

**Q.** With O=C(O)c1c(O)c(C2Cc3ccccc3C2)nc2c(C(F)(F)F)cccc12 [Compound 5, 3-hydroxy-2-indan-2-yl-8-trifluoromethyl-quinoline-4-carboxylic acid] as the compound, how does the inhibition at 250 µM read?
**A.** 35%

same assay, conditions: positive control in the Biacore assay

**Q.** For CC1(C)[C@@H](O[C@H]2O[C@H](C(=O)O)[C@@H](O)[C@H](O)[C@H]2O[C@@H]2O[C@H](C(=O)O)[C@@H](O)[C@H](O)[C@H]2O)CC[C@]2(C)[C@H]3C(=O)C=C4[C@@H]5C[C@@](C)(C(=O)O)CC[C@]5(C)CC[C@@]4(C)[C@]3(C)CC[C@@H]12 [Glycyrrhizin, reference compound], which IC50 is on record?
**A.** 1000 µM
